The subject of assay [1] is Staphylococcus aureus. In words: In vitro antibacterial activity against Staphylococcus aureus strains UC12673, UC9213, ATCC 29213, and UC9271 (SA). The format is functional.
Assay [2] relates to Moraxella catarrhalis. In words: In vitro antibacterial activity against Moraxella catarrhalis strains 30607 and 30603 (MC). The format is functional.
Assay [3] deals with Staphylococcus epidermidis. In words: In vitro antibacterial activity against Staphylococcus epidermidis strains UC12084, 30031, and CDC-CNS90 (SE). In kind it is functional.
Assay [4] has as its system Streptococcus pneumoniae. In words: In vitro antibacterial activity against Streptococcus pneumoniae strains ATCC 6305 and 31573 (SPN). In kind it is functional.
In assay [5] the test system is Haemophilus influenzae. In words: In vitro antibacterial activity against Haemophilia influenzae strains ATCC 30063 and ATCC 31517. The format is functional.
Assay [6] concerns Streptococcus pneumoniae. Briefly: In vitro antibacterial activity against Streptococcus pneumoniae strains ATCC6305 and 31573 (SPN).
In assay [7] the test system is Staphylococcus aureus. In words: In vitro antibacterial activity against linezolid-resistant Staphylococcus aureus ATCC 29213 (LRSA). The format is functional.
For assay [8], the system named is Staphylococcus epidermidis. In words: In vitro antibacterial activity against Staphylococcus epidermidis strains UC12084, 30031, and CDC-CNS90 (SE); range is 0.5-1. The format is functional.
The next assay relates to Enterococcus faecium. Briefly: In vitro antibacterial activity against vancomycin-resistant Enterococcus faecium UC12712 (VRE).
The subject of assay [9] is Haemophilus influenzae. Briefly: In vitro antibacterial activity against Haemophilia influenzae strains 30063 and ATCC 31517 (HI); range is 4-16. In kind it is functional.
Assay [10] deals with Staphylococcus aureus. Briefly: In vitro antibacterial activity against Staphylococcus aureus strains UC12673, UC9213, ATCC 29213, and UC9271 (SA); range is 8-32. In kind it is functional.
Assay [11] deals with Haemophilus influenzae. In words: In vitro antibacterial activity against Haemophilia influenzae strains 30063 and ATCC 31517 (HI); range is 8-32. The format is functional.
Assay [12] relates to Staphylococcus epidermidis. Briefly: In vitro antibacterial activity against Staphylococcus epidermidis strains UC12084, 30031, and CDC-CNS90 (SE); range is 2-4. In kind it is functional.
Assay [13] concerns Staphylococcus epidermidis. Briefly: In vitro antibacterial activity against Staphylococcus epidermidis strains UC12084, 30031, and CDC-CNS90 (SE); range is 1-2. The format is functional.
The next assay concerns Mus musculus. Briefly: In vivo Efficacy of compound after peroral administration to protect the Staphylococcus aureus mouse septicemia model. The format is functional. The settings on record: po.
The subject of assay [14] is Haemophilus influenzae. Briefly: In vitro antibacterial activity against Haemophilia influenzae strains 30063 and ATCC 31517 (HI); range is 8-16. In kind it is functional.
In assay [15] the test system is Staphylococcus aureus. In words: In vitro antibacterial activity against Staphylococcus aureus strains UC12673, UC9213, ATCC 29213, and UC9271 (SA); range is 2-4. The format is functional.
The test system of assay [16] is Haemophilus influenzae. Briefly: In vitro antibacterial activity against Haemophilia influenzae strains 30063 and ATCC 31517 (HI); range is 32->64. The format is functional.
The test system of assay [17] is Staphylococcus aureus. In words: In vitro antibacterial activity against Staphylococcus aureus strains UC12673, UC9213, ATCC 29213, and UC9271 (SA); range is 4-8. In kind it is functional.
For assay [18], the system named is Moraxella catarrhalis. Briefly: In vitro antibacterial activity against Moraxella catarrhalis strains 30607 and 30603 (MC); range is 16-32. The format is functional.
Assay [19] relates to Haemophilus influenzae. Briefly: In vitro antibacterial activity against Haemophilia influenzae strains 30063 and ATCC 31517 (HI); range is 32-64. The format is functional.
Assay [20] concerns Staphylococcus aureus. Briefly: In vitro antibacterial activity against Staphylococcus aureus strains UC12673, UC9213, ATCC 29213, and UC9271 (SA); range is 2-8. In kind it is functional.
The test system of assay [21] is Moraxella catarrhalis. In words: In vitro antibacterial activity against Moraxella catarrhalis strains 30607 and 30603 (MC); range is 8-16. In kind it is functional.
The test system of assay [22] is Staphylococcus aureus. In words: In vitro antibacterial activity against Staphylococcus aureus strains UC12673, UC9213, ATCC 29213, and UC9271 (SA); range is 4-16. In kind it is functional.

The structures appear in SMILES notation. Converted amounts (≈) assume the structure as drawn.

`O=C(NC[C@H]1CN(c2ccc(C3CCS(=O)(=O)CC3)c(F)c2)C(=O)O1)c1ccc(Cl)c(Cl)c1`: the MIC is over 64 µg/mL with Staphylococcus aureus [1]; over 64 µg/mL against Moraxella catarrhalis [2]; 2 µg/mL (≈ 3.88 µM) in assay [3]; over 64 µg/mL in the assay on Streptococcus pneumoniae [4]; over 64 µg/mL against Haemophilus influenzae [5].
On to `O=C(CF)NC[C@H]1CN(c2ccc(C3CCS(=O)(=O)CC3)c(F)c2)C(=O)O1`, for which the MIC was 2 µg/mL (≈ 4.97 µM) with Staphylococcus aureus [1]; over 8 µg/mL in the assay on Moraxella catarrhalis [2]; 0.5 µg/mL (≈ 1.24 µM) with Streptococcus pneumoniae [6]; 64 µg/mL (≈ 159 µM) with Staphylococcus aureus [7]; 0.5 µg/mL (≈ 1.24 µM) in assay [8]; 2 µg/mL (≈ 4.97 µM) against Enterococcus faecium. In addition, the MIC against Haemophilus influenzae [9] is over 4 µg/mL.
On to `O=C1O[C@@H](CNC(=O)C(F)(F)F)CN1c1ccc(C2CCS(=O)(=O)CC2)c(F)c1`, for which the MIC in the assay on Staphylococcus aureus [10] is 8 µg/mL (≈ 18.2 µM); in the assay on Moraxella catarrhalis [2], 8 µg/mL (≈ 18.2 µM); with Haemophilus influenzae [11], over 8 µg/mL; in [12], 2 µg/mL (≈ 4.56 µM); in the assay on Staphylococcus aureus [7], 64 µg/mL (≈ 146 µM); against Enterococcus faecium, 8 µg/mL (≈ 18.2 µM).
`COc1ccc(/C=C/C(=O)NC[C@H]2CN(c3ccc(N4CC[S+]([O-])CC4)c(F)c3)C(=O)O2)cc1`: the MIC in the assay with Staphylococcus aureus [1] is 4 µg/mL (≈ 8.2 µM); in the assay with Moraxella catarrhalis [2] it was over 64 µg/mL; in assay [3], 2 µg/mL (≈ 4.1 µM); in the assay on Staphylococcus aureus [7], over 64 µg/mL; in the assay with Enterococcus faecium it was 4 µg/mL (≈ 8.2 µM); with Haemophilus influenzae [5], over 64 µg/mL.
In general, ED50 refers to the dose that gives a 50% effect, or the effect in half of the subjects. As for `CC(=O)NC[C@H]1CN(c2ccc(N3CCOCC3)c(F)c2)C(=O)O1` [LINEZOLID], the figures for the MIC (in [13]; against Haemophilus influenzae [14]; against Staphylococcus aureus [7]) were 1 µg/mL (≈ 2.96 µM), over 8 µg/mL and 64 µg/mL (≈ 190 µM), respectively. Also, the 50% effect level in the assay on Mus musculus (ED50) was put at a dose of 5 mg/kg.
For the compound `O=C(/C=C/c1ccc(Cl)cc1)NC[C@H]1CN(c2ccc(N3CC[S+]([O-])CC3)c(F)c2)C(=O)O1`, the MIC amounted to 8 µg/mL (≈ 16.3 µM) against Moraxella catarrhalis [2]; 2 µg/mL (≈ 4.07 µM) with Staphylococcus aureus [15]; 1 µg/mL (≈ 2.03 µM) in [3]; 8 µg/mL (≈ 16.3 µM) against Staphylococcus aureus [7]; 2 µg/mL (≈ 4.07 µM) with Enterococcus faecium; 32 µg/mL (≈ 65 µM) in the assay with Haemophilus influenzae [16].
Consider `O=C(/C=C/c1ccc(F)cc1)NC[C@H]1CN(c2ccc(N3CC[S+]([O-])CC3)c(F)c2)C(=O)O1`, for which the MIC is 4 µg/mL (≈ 8.41 µM) with Staphylococcus aureus [17]; 16 µg/mL (≈ 33.6 µM) against Moraxella catarrhalis [18]; 2 µg/mL (≈ 4.21 µM) in assay [3]; 32 µg/mL (≈ 67.3 µM) against Staphylococcus aureus [7]; 4 µg/mL (≈ 8.41 µM) with Enterococcus faecium; 32 µg/mL (≈ 67.3 µM) in the assay on Haemophilus influenzae [19].
Consider `CC(=O)Oc1ccc(/C=C/C(=O)NC[C@H]2CN(c3ccc(C4CC[S+]([O-])CC4)c(F)c3)C(=O)O2)cc1` (some centres not stated), for which the MIC in the assay on Staphylococcus aureus [20] is 2 µg/mL (≈ 3.89 µM); in [13], 1 µg/mL (≈ 1.94 µM); in the assay on Streptococcus pneumoniae [4] it was 8 µg/mL (≈ 15.5 µM); in the assay with Moraxella catarrhalis [21], 8 µg/mL (≈ 15.5 µM); with Haemophilus influenzae [5], 32 µg/mL (≈ 62.2 µM).
Consider `O=C1O[C@@H](CNC(=O)C(F)(F)F)CN1c1ccc(N2CC[S+]([O-])CC2)c(F)c1`, for which the MIC (in the assay on Staphylococcus aureus [1]; with Moraxella catarrhalis [2]; in the assay with Streptococcus pneumoniae [6]; in [3]; in the assay with Staphylococcus aureus [7]; in the assay with Enterococcus faecium) was over 64 µg/mL each time. Besides, the MIC against Haemophilus influenzae [5] is over 64 µg/mL.
With `CC(=O)NC[C@H]1CN(c2ccc(C3CC[S+]([O-])CC3)c(F)c2)C(=O)O1` (some centres not stated), the MIC against Staphylococcus aureus [1] was 4 µg/mL (≈ 10.9 µM); in the assay with Streptococcus pneumoniae [6], 0.5 µg/mL (≈ 1.36 µM); in the assay with Staphylococcus aureus [7], 64 µg/mL (≈ 174 µM); in assay [8], 0.5 µg/mL (≈ 1.36 µM); against Enterococcus faecium, 2 µg/mL (≈ 5.43 µM); in the assay on Moraxella catarrhalis [21], over 8 µg/mL. In addition, the MIC against Haemophilus influenzae [5] was found to be 8 µg/mL (≈ 21.7 µM).
`CSCC(=O)NC[C@H]1CN(c2ccc(C3CCS(=O)(=O)CC3)c(F)c2)C(=O)O1`: the MIC was determined as 8 µg/mL (≈ 18.6 µM) in the assay on Moraxella catarrhalis [2]; 4 µg/mL (≈ 9.29 µM) in the assay on Staphylococcus aureus [17]; 8 µg/mL (≈ 18.6 µM) against Haemophilus influenzae [11]; 2 µg/mL (≈ 4.65 µM) in [3]; 64 µg/mL (≈ 149 µM) in the assay with Staphylococcus aureus [7]; 4 µg/mL (≈ 9.29 µM) in the assay with Enterococcus faecium.
Consider `O=C(NC[C@H]1CN(c2ccc(C3CCS(=O)(=O)CC3)c(F)c2)C(=O)O1)C(F)F`, for which the MIC against Moraxella catarrhalis [2] came out at 8 µg/mL (≈ 19 µM); in assay [13], 1 µg/mL (≈ 2.38 µM); against Streptococcus pneumoniae [6] it was 1 µg/mL (≈ 2.38 µM); in the assay on Staphylococcus aureus [22], 4 µg/mL (≈ 9.51 µM); in the assay with Staphylococcus aureus [7], 32 µg/mL (≈ 76.1 µM); in the assay on Enterococcus faecium, 4 µg/mL (≈ 9.51 µM). Further, in the assay with Haemophilus influenzae [9], the MIC is over 4 µg/mL.

These data come from ChEMBL document CHEMBL1136459, “New antibacterial tetrahydro-4(2H)-thiopyran and thiomorpholine S-oxide and S,S-dioxide phenyloxazolidinones” (Bioorg Med Chem Lett, 2003).
